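In this assay, cells in 96-well plates receive the compound at five concentrations for 48 hours. Endpoints are linearly interpolated between the surrounding concentrations. GI50 is the concentration that inhibits growth by half. TGI denotes the concentration required for complete inhibition of growth.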
Experiments:
Assay in all cases: NCI anticancer screen, dose series, 48 h
MOLT-4 leukemia = test system: MOLT-4 leukemia
RPMI-8226 leukemia = test system: RPMI-8226 leukemia
SF-295 CNS = test system: SF-295 CNS
OVCAR-5 ovarian = test system: OVCAR-5 ovarian
SF-539 CNS = test system: SF-539 CNS
NCI-H522 lung = test system: NCI-H522 lung
SK-MEL-28 melanoma = test system: SK-MEL-28 melanoma
BT-549 breast = test system: BT-549 breast
HS 578T breast = test system: HS 578T breast
NCI-H226 lung = test system: NCI-H226 lung
SR leukemia = test system: SR leukemia
SNB-19 CNS = test system: SNB-19 CNS
UACC-62 melanoma = test system: UACC-62 melanoma
CCRF-CEM leukemia = test system: CCRF-CEM leukemia
UACC-257 melanoma = test system: UACC-257 melanoma
HL-60(TB) leukemia = test system: HL-60(TB) leukemia
T-47D breast = test system: T-47D breast
CAKI-1 renal = test system: CAKI-1 renal
PC-3 prostate = test system: PC-3 prostate
SK-OV-3 ovarian = test system: SK-OV-3 ovarian
DU-145 prostate = test system: DU-145 prostate
UO-31 renal = test system: UO-31 renal
HCT-116 colon = test system: HCT-116 colon
U251 CNS = test system: U251 CNS
NCI-H23 lung = test system: NCI-H23 lung
HOP-92 NSCLC = test system: HOP-92 NSCLC
HCT-15 colon = test system: HCT-15 colon
EKVX NSCLC = test system: EKVX NSCLC
TK-10 renal = test system: TK-10 renal
A498 renal = test system: A498 renal
SNB-75 CNS = test system: SNB-75 CNS
ACHN renal = test system: ACHN renal
M14 melanoma = test system: M14 melanoma
SW-620 colon = test system: SW-620 colon
OVCAR-3 ovarian = test system: OVCAR-3 ovarian
MDA-MB-468 breast = test system: MDA-MB-468 breast
COLO 205 colon = test system: COLO 205 colon
SK-MEL-5 melanoma = test system: SK-MEL-5 melanoma
MCF7 breast = test system: MCF7 breast
HOP-62 NSCLC = test system: HOP-62 NSCLC
IGROV1 ovarian = test system: IGROV1 ovarian
HCC-2998 colon = test system: HCC-2998 colon
SF-268 CNS = test system: SF-268 CNS
HT29 colon = test system: HT29 colon
786-0 renal = test system: 786-0 renal
K-562 leukemia = test system: K-562 leukemia
A549 NSCLC = test system: A549 NSCLC
OVCAR-4 ovarian = test system: OVCAR-4 ovarian
SK-MEL-2 melanoma = test system: SK-MEL-2 melanoma
MDA-MB-231 breast = test system: MDA-MB-231 breast
MDA-MB-435 = test system: MDA-MB-435
OVCAR-8 ovarian = test system: OVCAR-8 ovarian
SN12C renal = test system: SN12C renal
MALME-3M melanoma = test system: MALME-3M melanoma
NCI-H460 lung = test system: NCI-H460 lung
RXF 393 renal = test system: RXF 393 renal
KM12 colon = test system: KM12 colon
LOX IMVI melanoma = test system: LOX IMVI melanoma

## N#CC1=C(c2cccs2)Nc2c(c(-c3ccccc3)nn2-c2ccccc2)C12C(=O)Nc1ccccc12 (stereo unspecified)
MOLT-4 leukemia
  GI50: 12 µM
  TGI: 41.1 µM
RPMI-8226 leukemia
  GI50: 8.6 µM
  TGI: 83.7 µM
SF-295 CNS
  GI50: 12.8 µM
  TGI: 33.3 µM
OVCAR-5 ovarian
  GI50: 19.8 µM
  TGI: 45.6 µM
SF-539 CNS
  GI50: 15.2 µM
  TGI: 31.7 µM
NCI-H522 lung
  GI50: 2.99 µM
  TGI: 15.8 µM
SK-MEL-28 melanoma
  GI50: 14.9 µM
  TGI: 29.3 µM
BT-549 breast
  GI50: 5.86 µM
  TGI: 21 µM
HS 578T breast
  GI50: 14.4 µM
  TGI: 44.9 µM
NCI-H226 lung
  GI50: 16.9 µM
  TGI: 42.5 µM
SR leukemia
  GI50: 12.7 µM
  TGI: 58.1 µM
SNB-19 CNS
  GI50: 9.25 µM
  TGI: > 100 µM
UACC-62 melanoma
  GI50: 13.7 µM
  TGI: 27.9 µM
CCRF-CEM leukemia
  GI50: 7.52 µM
  TGI: 46.8 µM
UACC-257 melanoma
  GI50: 18.1 µM
  TGI: 48.3 µM
HL-60(TB) leukemia
  GI50: 5.75 µM
  TGI: 45.6 µM
T-47D breast
  GI50: 18.2 µM
  TGI: 69.2 µM
CAKI-1 renal
  GI50: 15.7 µM
  TGI: 35 µM
PC-3 prostate
  GI50: 8.38 µM
  TGI: 24.2 µM
SK-OV-3 ovarian
  GI50: 13.7 µM
  TGI: 33.2 µM
DU-145 prostate
  GI50: 20.3 µM
  TGI: 46.6 µM
UO-31 renal
  GI50: 9.9 µM
  TGI: > 100 µM
HCT-116 colon
  GI50: 11.9 µM
  TGI: 28.1 µM
U251 CNS
  GI50: 6.23 µM
  TGI: 20.6 µM
NCI-H23 lung
  GI50: 12.9 µM
  TGI: 31.8 µM
HOP-92 NSCLC
  GI50: 3.52 µM
  TGI: 15 µM
HCT-15 colon
  GI50: 8.92 µM
  TGI: 24 µM
EKVX NSCLC
  GI50: 11.2 µM
  TGI: 33.9 µM
TK-10 renal
  GI50: 13.6 µM
  TGI: 31.1 µM
A498 renal
  GI50: 17.8 µM
  TGI: 35.3 µM
SNB-75 CNS
  GI50: 8.48 µM
  TGI: 30.8 µM
ACHN renal
  GI50: 12.6 µM
  TGI: 26.4 µM
M14 melanoma
  GI50: 15 µM
  TGI: 32.7 µM
SW-620 colon
  GI50: 9.57 µM
  TGI: 28.6 µM
OVCAR-3 ovarian
  GI50: 20.9 µM
  TGI: 73.2 µM
MDA-MB-468 breast
  GI50: 11.4 µM
  TGI: 32.4 µM
COLO 205 colon
  GI50: 15.5 µM
  TGI: 34.9 µM
SK-MEL-5 melanoma
  GI50: 13.7 µM
  TGI: 29.4 µM
MCF7 breast
  GI50: 12.8 µM
  TGI: 26.5 µM
HOP-62 NSCLC
  GI50: 17 µM
  TGI: 44.1 µM
IGROV1 ovarian
  GI50: 16.2 µM
  TGI: 34.4 µM
HCC-2998 colon
  GI50: 14 µM
  TGI: 35.6 µM
SF-268 CNS
  GI50: 18.9 µM
  TGI: > 100 µM
HT29 colon
  GI50: 14 µM
  TGI: 28.3 µM
786-0 renal
  GI50: 15.6 µM
  TGI: 31.1 µM
K-562 leukemia
  GI50: 6.17 µM
  TGI: 38.9 µM
A549 NSCLC
  GI50: 10.2 µM
  TGI: 23 µM
OVCAR-4 ovarian
  GI50: 8.25 µM
  TGI: 27 µM
SK-MEL-2 melanoma
  GI50: 15.8 µM
  TGI: 38.3 µM
MDA-MB-231 breast
  GI50: 16.4 µM
  TGI: 33.8 µM
MDA-MB-435
  GI50: 17.8 µM
  TGI: 37.2 µM
OVCAR-8 ovarian
  GI50: 14.8 µM
  TGI: 29.5 µM
SN12C renal
  GI50: 19.6 µM
  TGI: > 100 µM
MALME-3M melanoma
  GI50: 15.9 µM
  TGI: 30 µM
NCI-H460 lung
  GI50: 11.3 µM
  TGI: 24.1 µM
RXF 393 renal
  GI50: 4.91 µM
  TGI: 21.1 µM
KM12 colon
  GI50: 5.13 µM
  TGI: 20.4 µM
LOX IMVI melanoma
  GI50: 14.4 µM
  TGI: 32.4 µM

Source: PubChem BioAssay (NCI)
